In patent publication US20070149600A1, “Substituted octahydroisoindoles” (priority 2005, published 2007):
Where a name gives a salt, the structure may show the parent alone.

Biological target: T1, human MCH1R receptor (Homo sapiens, UniProt Q99705)
T1 construct: host or cells: CHO-K1
Assay: Binding assay: [125I]-MCH displacement by SPA on CHO-K1 hMCHR1 membranes
Conditions: calculated from IC50 using the Cheng Prushoff equation; 0.2 nM [125I]-MCH; CHO-K1 hMCHRI membranes
Protocol: The compounds according to the invention were evaluated for their binding to the human MCH1R receptor by the following method:
Compounds. MCH peptide was purchased from Phoenix pharmaceuticals. (Phe^13, [^125I]Tyr^19 Melanine-Concentrating Hormone (human, mouse, rat) ([^125I]-MCH) was obtained from NEN life Science Products. Inc. Boston, Mass. Wheat germ agglutinine SPA beads (RPNQ 0001) were obtained from Amersham-Pharmacia Biotech. All other reagents used are of highest purity from different resources available. Protein Kits, Micro BCA™ Protein Assay Reagent Kit (Cat No. 23235) were purchased from Piece, Rockford, Ill., USA. […]
The radio labeled [^125I]-MCH was diluted with cold MCH in ratio 1:3. […] The results were calculated using Excel program and the curves were drawn using a program GraphPad Prism.
For screening of the substances the amount of the beads used was 0.25 mg/well and the amount of the membrane protein was 4 μg/well. […] The samples were counted using Microbeta counter (Wallac Trilux 1450 Micro beta counter, Wallac, Finland) for 2 minutes and the results were calculated by using the computer program Activity Base.
The Ki value is calculated from IC50 using the Cheng Prushoff equation: Ki=IC50(1+[S]/Km) [Cheng, Y. C.; Prushoff, W. H. Biochem. Pharmacol. 1973, 22, 3099-3108].

T1 sequence (Q99705 whole entry): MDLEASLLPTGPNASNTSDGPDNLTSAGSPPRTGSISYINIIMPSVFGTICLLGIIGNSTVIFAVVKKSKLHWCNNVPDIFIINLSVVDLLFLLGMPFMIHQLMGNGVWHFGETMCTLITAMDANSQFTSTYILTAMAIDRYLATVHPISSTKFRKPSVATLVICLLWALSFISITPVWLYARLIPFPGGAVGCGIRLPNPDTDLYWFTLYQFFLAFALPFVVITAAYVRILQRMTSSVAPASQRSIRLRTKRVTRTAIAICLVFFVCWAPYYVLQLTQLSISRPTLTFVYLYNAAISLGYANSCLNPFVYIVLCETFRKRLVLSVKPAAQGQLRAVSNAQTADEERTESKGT

Ki | Compound
288 nM | COc1ccc([C@@]23CC[C@@H](NC(=O)c4ccc(C(F)(F)F)cc4F)C[C@@H]2CN(C)C3)cc1OC (relative stereo) [Example 44, N-[(3aS*,5R*,7aR*)-7a-(3,4-Dimethoxyphenyl)-2-methyloctahydro-1H-isoindol-5-yl]-2-fluoro-4-(trifluoromethyl)benzamide trifluoroacetate]
74 nM | COc1ccc([C@@]23CC[C@@H](NC(=O)Nc4cc(C)cc(C)c4)C[C@@H]2CN(C)C3)cc1OC (relative stereo) [Example 48, N-[(3 aS*,5R*,7aR*)-7a-(3,4-Dimethoxyphenyl)-2-methyloctahydro-1H-isoindol-5-yl]-N′-(3,5-dimethylphenyl)urea trifluoroacetate]
